Measured values: publication PMC9182146, “BSA Interaction, Molecular Docking, and Antibacterial Activity of Zinc(II) Complexes Containing the Sterically Demanding Biomimetic N3S2 Ligand: The Effect of Structure Flexibility” (Molecules, 2022)
Read-outs that look alike come from different tables or passages of the source.

Key:
BSA [1] = biological target: T1, BSA (Bos taurus, UniProt P02769); settings: for ΔHº / ΔSº: 288–308 K
Procedure: The association constants and number of binding sites between the zinc complexes and BSA were calculated according to Equation (4). (4) logF0−F/F=logKA+nlogQ
In general, ΔGº reflects the spontaneity of the reaction, whereas ΔHº and ΔSº are the main quantities for determining the binding force. The thermodynamic parameters of ΔHº and ΔSº were calculated using Equation (5), and the Gibbs free energy was estimated from Equation (6). lnKA = −ΔHº/RT + ΔSº/R(5) ΔGº = ΔHº − TΔSº = −RT ln KA(6)

BSA [2] = biological target: T1, BSA; settings: T = 298 K
Source text: The Förster resonance energy transfer (FRET) mechanism allows the excitation energy to be passed from the donor to the acceptor without photon emission from the former molecular system. According to the FRET principle, the rate of energy transfer depends on the distance between the donor and the acceptor, the orientation of the donor and the acceptor dipoles, and the degree of overlap between the donor emission spectrum and the acceptor absorption spectrum. Energy transfer efficiency (E) can be used to evaluate the distance (r) between zinc complexes (acceptor) and BSA (donor) in protein using Equation (8), (8) E=1−F/F0=R06/R06+r^6 where F and F0 are the fluorescence intensity of BSA in the presence and absence of the acceptor, respectively, r is the distance between the acceptor and donor, R0 is the critical distance for 50% energy transfer and can be calculated using Equation (9), (9) R06=8.8×10^−25K^2N^−4∅J where the spatial orientation factor of the dipole K^2 = 2/3, the refractive index of the medium (water) N = 1.333, and the fluorescence quantum yield of the donor BSA ∅ = 0.15 [10, 38]. The spectral overlap integral (J), calculated from the overlap of the acceptor UV absorption spectra with the donor fluorescence emission spectra, is given using Equation (10). (10) J=∫0∞Fλε λλ^4dλ/∫0∞Fλdλ

Enterococcus = assay: MIC and MBC antibacterial test; assay type: cell-based; settings: 30 °C; for MIC: 24 h
Procedure: (§1) All complexes were tested for antibacterial activity against both […] bacteria. The antibacterial function of complexes, represented as the diameter of the growth-inhibition region in millimeters, is shown in Figure 8. The minimum inhibitory concentration (MIC) and minimum bactericidal concentration (MBC) of complexes needed to inhibit bacterial growth are presented in Table 4. The MBC is identified by the determination of the lowest concentration of antibacterial agents that reduces the viability of the initial bacterial inoculum by a predetermined reduction of 99.9%. The value agreed on in two or more occasions was adopted as the MIC or MBC strain. Chloramphenicol was used for control purposes. From the inhibition zone, as well as the MIC and MBC data, one can conclude the following: Firstly, both complexes were active, but the activity was less than that for the normal drug (chloramphenicol).
(§2) The synthesized complexes were tested against both […] bacteria for antibacterial activity. The bacteria were incubated by shaking in the thermostat at 30 °C overnight. At this stage, a loop of each culture was placed in 10 mL of 10-fold diluted broth, and the test bacteria cultures containing 10^5 mL^−1 cells were used for antimicrobial testing. […] MIC and MBC as recommended by the NCCLS (National Committee for Clinical Laboratory Standards, Albany, NY, USA). After 24 h of incubation, the MIC was read at 30 °C equivalent to the concentration of the tube without visible growth to measure the effect of decreased antibiotic/antiseptic concentrations over a defined period of time on the inhibition of microbial population growth. These assessments may be quite useful during the R&D phase of the product to determine the appropriate concentrations required in the final product, since the concentration of the drug required to produce the effect is normally several hundreds to thousands of times lower than the concentration found in the completed dosage form.

Escherichia coli = assay: MIC and MBC antibacterial test; assay type: cell-based; settings: 30 °C
Procedure: as §1, §2

Pseudomonas aeruginosa = assay: MIC and MBC antibacterial test; assay type: cell-based; settings: 30 °C; for MIC: 24 h
Procedure: as §1, §2

Staphylococcus aureus = assay: MIC and MBC antibacterial test; assay type: cell-based; settings: 30 °C; for MIC: 24 h
Procedure: as §1, §2

[3] = Dynamic light scattering size distribution of self-assembled adducts in water; assay type: physicochemical; settings: DLS, room temperature
BSA [4] = biological target: T1, BSA; assay: Fluorescence quenching of BSA (Stern–Volmer); settings: for KSV (called binding constants in conclusions) / Kq: temperature not stated
BSA [5] = biological target: T1, BSA; assay: Cyclic voltammetry of BSA with zinc complexes; settings: for BSA cathodic peak potential after addition of complex: BSA alone approximately −0.39 V, water, Ag/AgCl reference; for kR/kO binding constants: reduced over oxidized form
Procedure: Cyclic voltammograms of BSA in water in the presence and absence of zinc complexes were used for a voltammetric study.
The optical absorptions were performed using a 1.0 cm quartz cell on a JASCO spectrophotometer (V-780). Fluorescence measurements were carried out using the JASCO spectrofluorometer (FP-8300 model). The excitation wavelength was set at 280 nm, and the wavelength of the emission was set to 285–600 nm. Picosecond fluorescence decay profiles were measured using the FluoTime 300 (Pico Quant, Berlin, Germany) by the single-photon counting method. Lifetimes were evaluated using software supplied with the instrument. The time-resolved fluorescence instrumentation was the same as for steady-state experiments. Cyclic voltammograms were carried out on a Gamry setup with a carbon working electrode and a platinum wire as a counter electrode. A silver–silver chloride (Ag/AgCl) electrode was used as a reference electrode. All tests were carried out in oxygen-free solutions, and sodium sulfate was used as an electrolyte support. Dynamic light scattering (DLS) was used to determine the distribution profile of the particle size in the solution.

T1 sequence (P02769 25-607): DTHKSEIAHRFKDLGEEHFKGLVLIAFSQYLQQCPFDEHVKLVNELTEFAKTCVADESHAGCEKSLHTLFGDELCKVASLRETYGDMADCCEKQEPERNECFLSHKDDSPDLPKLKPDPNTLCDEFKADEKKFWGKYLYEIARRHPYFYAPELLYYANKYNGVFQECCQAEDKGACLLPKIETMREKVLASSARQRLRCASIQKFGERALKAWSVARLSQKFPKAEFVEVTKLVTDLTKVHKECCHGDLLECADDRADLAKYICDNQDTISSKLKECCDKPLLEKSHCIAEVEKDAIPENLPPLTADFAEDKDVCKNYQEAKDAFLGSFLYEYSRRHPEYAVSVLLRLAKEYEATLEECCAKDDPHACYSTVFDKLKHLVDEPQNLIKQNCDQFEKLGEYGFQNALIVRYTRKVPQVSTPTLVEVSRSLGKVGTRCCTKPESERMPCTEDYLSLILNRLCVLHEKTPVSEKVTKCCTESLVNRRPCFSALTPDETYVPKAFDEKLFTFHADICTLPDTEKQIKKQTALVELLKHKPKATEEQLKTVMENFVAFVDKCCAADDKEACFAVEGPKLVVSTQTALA

| Compound | ΔHº (BSA [1]) [kcal/mol] | ΔSº (BSA [1]) [J mol^−1 K^−1] | KA (association constant) (BSA [1]; T = 288 K) | n (number of binding sites) (BSA [1]; T = 288 K) | ΔGº (BSA [1]; T = 288 K) [kcal/mol] | KA (association constant) (BSA [1]; T = 298 K) | n (number of binding sites) (BSA [1]; T = 298 K) | ΔGº (BSA [1]; T = 298 K) [kcal/mol] | KA (association constant) (BSA [1]; T = 308 K) | n (number of binding sites) (BSA [1]; T = 308 K) | ΔGº (BSA [1]; T = 308 K) [kcal/mol] | n (number of binding sites) (BSA [1]; all temperatures) | J (spectral overlap integral) (BSA [2]) | R0 (critical distance for 50% energy transfer) (BSA [2]) [nm] | r (distance between acceptor and donor) (BSA [2]) [nm] | ∫F donor λ Δλ (BSA [2]) | MBC (Enterococcus) [µg/mL] | MIC (Enterococcus) [µg/mL] | MBC (Pseudomonas aeruginosa) [µg/mL] | MIC (Pseudomonas aeruginosa) [µg/mL] | further results |
| --- | --- | --- | --- | --- | --- | --- | --- | --- | --- | --- | --- | --- | --- | --- | --- | --- | --- | --- | --- | --- | --- |
| CC(=Nc1cc(C(C)(C)C)cc(C(C)(C)C)c1[S-])c1cccc(C(C)=Nc2cc(C(C)(C)C)cc(C(C)(C)C)c2[S-])n1.[Zn+2] [DBZ, [Zn(py^tBuN2Me2S2)]] | 10 ± 2.39 | 261 ± 35 | 9.9 10^5 M^−1 | 1.12 | -7.93 ± 0.019 | 22.8 10^5 M^−1 | 1.32 | -8.56 ± 0.096 | 30.7 10^5 M^−1 | 1.45 | -9.18 ± 0.19 | ~1 | 9.0 10^−13 L mol^−1 cm^3 | 2.51 | 3.21 | 79.6 | 50.0 | 25.0 | 25.0 | 12.5 | MBC (Escherichia coli): 50.0 µg/mL; MIC (Escherichia coli; 24 h): 25.0 µg/mL; MBC (Staphylococcus aureus): 25.0 µg/mL; MIC (Staphylococcus aureus): 12.5 µg/mL; mean size of self-assembled adduct with BSA [3]: 110 nm; Kq (quenching rate constant) (BSA [4]; T = 288 K): 4.15 10^14 M^−1 s^−1; Ksv (Stern–Volmer quenching constant) (BSA [4]; T = 288 K): 19.0 10^5 M^−1; Kq (quenching rate constant) (BSA [4]; T = 298 K): 5.40 10^14 M^−1 s^−1; Ksv (Stern–Volmer quenching constant) (BSA [4]; T = 298 K): 24.7 10^5 M^−1; Kq (quenching rate constant) (BSA [4]; T = 318 K): 5.97 10^14 M^−1 s^−1; Ksv (Stern–Volmer quenching constant) (BSA [4]; T = 318 K): 27.3 10^5 M^−1; DBZ binds to BSA more than DBZH4 (BSA [4]; ratio of KSV, DBZ over DBZH4): ~30 fold; DBZ binds stronger than DBZH4 (BSA [4]; ratio of binding constants, conclusions): about 35 times; KSV (called binding constants in conclusions) (BSA [4]): 2.47e+06 M⁻¹; Kq (BSA [4]): 5.4e+14 M⁻¹ s⁻¹; BSA cathodic peak potential after addition of complex (BSA [5]): −0.55 V; kR/kO binding constants (BSA [5]): 0.43 |
| CC(Nc1cc(C(C)(C)C)cc(C(C)(C)C)c1[S-])c1cccc(C(C)Nc2cc(C(C)(C)C)cc(C(C)(C)C)c2[S-])n1.[Zn+2] (centres unmarked) [DBZH4, [Zn(py^tBuN2H4Me2S2)]] | 15.5 ± 0.48 | 304 ± 6 | 0.13 10^5 M^−1 | 1.22 | -5.4 ± 0.072 | 0.31 10^5 M^−1 | 1.40 | -6.12 ± 0.048 | 0.76 10^5 M^−1 | 1.42 | -6.84 ± 0.048 | ~1 | 5.4 10^−13 L mol^−1 cm^3 | 2.31 | 3.67 | 90.0 | 60.0 | 30.0 | 30.0 | 15.0 | MBC (Staphylococcus aureus): 30.0 µg/mL; MIC (Staphylococcus aureus): 15.0 µg/mL; mean size of self-assembled adduct with BSA [3]: 339 nm; size range of self-assembled adduct with BSA [3]: 100–1000 nm; Kq (quenching rate constant) (BSA [4]; T = 288 K): 0.150 10^14 M^−1 s^−1; Ksv (Stern–Volmer quenching constant) (BSA [4]; T = 288 K): 0.69 10^5 M^−1; Kq (quenching rate constant) (BSA [4]; T = 298 K): 0.153 10^14 M^−1 s^−1; Ksv (Stern–Volmer quenching constant) (BSA [4]; T = 298 K): 0.70 10^5 M^−1; Kq (quenching rate constant) (BSA [4]; T = 318 K): 0.155 10^14 M^−1 s^−1; Ksv (Stern–Volmer quenching constant) (BSA [4]; T = 318 K): 0.71 10^5 M^−1; KSV (called binding constants in conclusions) (BSA [4]): 70000 M⁻¹; Kq (BSA [4]): 1.5e+13 M⁻¹ s⁻¹; BSA cathodic peak potential after addition of complex (BSA [5]): −0.57 V; kR/kO binding constants (BSA [5]): 0.48 |
